PubChem BioAssay AID2004 (Sanford-Burnham Center for Chemical Genomics, 2009)

Each compound was assayed against Dual specificity protein phosphatase 3 (Homo sapiens) (UniProt P51452) (assay: PubChem AID 2004). Settings: recombinant VHR phosphatase, colorimetric substrate read-out.
Dual specificity protein phosphatase 3 (Homo sapiens), sequence (P51452 whole entry, looked up): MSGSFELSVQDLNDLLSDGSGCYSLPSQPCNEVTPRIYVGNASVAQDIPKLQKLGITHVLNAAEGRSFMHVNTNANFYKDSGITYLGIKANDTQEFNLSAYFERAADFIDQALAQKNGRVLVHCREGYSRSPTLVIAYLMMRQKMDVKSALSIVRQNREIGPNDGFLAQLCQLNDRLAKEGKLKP

| Compound | Ki [µM] |
| --- | --- |
| COc1ccc(OC)c2c1C(=O)c1ccccc1C2=O | 3.07 |
| O=C(/C=C/c1ccco1)/C=C/c1ccc(-c2ccc(Cl)c(Cl)c2)o1 | 15.9 |
| O=C1NC(=S)N(c2ccc(F)cc2)C(=O)/C1=C/c1ccc(Br)o1 | 12.1 |
| O=C1NC(=O)N(c2cccc(Br)c2)C(=O)/C1=C/c1ccc(-c2ccc(C(=O)O)cc2)o1 | 16.2 |
| O=C(O)c1cccc(-c2ccc(/C=N/Nc3ccc([N+](=O)[O-])cn3)o2)c1 | 13.8 |
| O=C1c2cccc3c4ccccc4n(c23)C(=O)C1(O)O | 13.8 |
| C=CCN1C(=O)/C(=C\C=C\c2ccco2)C(=O)NC1=S | 15.8 |
| O=C(O)C(Cc1ccccc1)N1C(=O)/C(=C/C=C/c2ccccc2)SC1=S (stereo not drawn) | 2.01 |
| CC1=C(C#N)c2nc(N)c(C#N)c(C)c2/C1=C/c1ccc(-c2ccc(C(=O)O)c(Cl)c2)o1 | 3.87 |
| S=C(Nc1ccc2c(c1)oc1ccccc12)Nc1cccc2ccccc12 | 2.94 |
| CCOC(=O)c1[nH]nc2c1C(=O)N(c1ccc(Br)cc1)C2=O | 2.64 |
| O=c1[nH]c(=S)n(-c2cccc(Cl)c2)c(O)c1/C=C1/C=CC=N1 | 3.49 |
| O=C1C(Cl)=C/C(=N\S(=O)(=O)c2ccc(Cl)cc2)C(Cl)=C1Cl | 13.4 |
| Cc1ccc(C)n1-c1ccc(SCC(=O)O)cc1 | 2.09 |
| Cc1ccc(C)n1-c1ccc(C(=O)O)c(O)c1 | 12.8 |
| O=C1/C(=C/C=C/c2ccccc2)SC(=S)N1CCS(=O)(=O)O | 0.809 |
| COc1ccc(N2C(=O)/C(=C/c3ccc(I)o3)C(=O)NC2=S)cc1 | 4.44 |
| O=C(/C=C/c1ccc(-c2ccccc2[N+](=O)[O-])o1)Nc1ccc(-c2nc3ccccc3o2)cc1 | 1.76 |
